Consider six compounds from ChEMBL document CHEMBL1124638, “2,4-Diamino-5-benzylpyrimidines and analogues as antibacterial agents. 10. 2,4-Diamino-5-(6-quinolylmethyl)- and -[(tetrahydro-6-quinolyl)methyl]pyrimidine derivatives. Further specificity studies” (J Med Chem, 1989).

In brackets after ≈: the same amount, converted by molar mass.

Assay [1] addresses T1, Dihydrofolate reductase (Rattus norvegicus, UniProt Q920D2).
T1 sequence (Q920D2 whole entry): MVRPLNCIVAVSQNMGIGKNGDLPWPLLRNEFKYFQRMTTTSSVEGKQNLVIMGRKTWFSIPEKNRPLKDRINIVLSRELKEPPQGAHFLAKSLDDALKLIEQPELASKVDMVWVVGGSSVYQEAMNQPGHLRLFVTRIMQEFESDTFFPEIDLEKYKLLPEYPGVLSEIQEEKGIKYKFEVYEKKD
In words: Inhibitory activity against dihydrofolate reductase in rat liver. The following applies: read-out: I50.

Assay [2] has as its target Dihydrofolate reductase (Neisseria gonorrhoeae, UniProt P04174). The experiment in a line: Inhibitory activity against Dihydrofolate reductase in Neisseria gonorrhoeae. The following applies: read-out: I50.
Assay [3] relates to Bordetella bronchiseptica. In words: Comparative in vitro antibacterial activity with trimethoprim against Bordetella bronchiseptica CN385. Type of assay: functional.
In a further assay the test system is Citrobacter freundii. The experiment in a line: Comparative in vitro antibacterial activity with trimethoprim against Citrobacter freundii 2200/77. It is filed as functional.
The subject of the next assay is Escherichia coli. The experiment in a line: Comparative in vitro antibacterial activity with trimethoprim against Escherichia coli CN314. It is filed as functional.
In the next assay the test system is Klebsiella aerogenes. In words: Comparative in vitro antibacterial activity with trimethoprim against Enterobacter aerogenes 2200/86. It is filed as functional.
In assay [4] the test system is Mycolicibacterium smegmatis. In words: Comparative in vitro antibacterial activity with trimethoprim against Mycobacterium smegmatis S 3254. It is filed as functional.
Another assay concerns Proteus mirabilis. In words: Comparative in vitro antibacterial activity with trimethoprim against Proteus mirabilis S2409. Type of assay: functional.
The subject of a further assay is Proteus vulgaris. In words: Comparative in vitro antibacterial activity with trimethoprim against Proteus vulgaris CN329. It is filed as functional.
Assay [5] can be described thus: Comparative in vitro antibacterial activity with trimethoprim against Salmonella typhi CN512. Type of assay: functional, salmonella typhosa.
The subject of another assay is Shigella flexneri. The experiment in a line: Comparative in vitro antibacterial activity with trimethoprim against Shigella flexneri CN6007. It is filed as functional.
Another assay concerns Serratia marcescens. The experiment in a line: Comparative in vitro antibacterial activity with trimethoprim against Serratia marcescens CN2398. It is filed as functional.
The test system of another assay is Salmonella typhimurium. The experiment in a line: Comparative in vitro antibacterial activity with trimethoprim against Salmonella Typhimurium S 8587. It is filed as functional, Salmonella enterica subsp. enterica serovar Typhimurium. Particulars: Salmonella enterica.
The test system of a further assay is Streptococcus pyogenes. The experiment in a line: Comparative in vitro antibacterial activity of compound with trimethoprim against Streptococcus pyogenes CN10. Type of assay: functional.
The test system of a further assay is Staphylococcus aureus. The experiment in a line: Comparative in vitro antibacterial activity with trimethoprim against Staphylococcus aureus CN491. Type of assay: functional.
In the next assay the test system is Enterococcus faecalis. The experiment in a line: Comparative in vitro antibacterial activity with trimethoprim against Streptococcus faecalis CN478. Type of assay: functional.
Another assay has as its system Streptococcus agalactiae. In words: Comparative in vitro antibacterial activity with trimethoprim against Streptococcus agalactiae CN1143. It is filed as functional.
The test system of another assay is Vibrio cholerae. The experiment in a line: Comparative in vitro antibacterial activity with trimethoprim against Vibrio cholerae ATCC 14035. It is filed as functional.
Another assay concerns Pasteurella multocida. In words: Comparative in vitro antibacterial activity with trimethoprim against Pasteurella multocida ATCC 6587. Type of assay: functional.
The test system of another assay is Klebsiella pneumoniae. In words: Comparative in vitro antibacterial activity with trimethoprim against Klebsiella pneumoniae CN3632. Type of assay: functional.

Sequence of Dihydrofolate reductase (Neisseria gonorrhoeae, UniProt P04174) (P04174 whole entry): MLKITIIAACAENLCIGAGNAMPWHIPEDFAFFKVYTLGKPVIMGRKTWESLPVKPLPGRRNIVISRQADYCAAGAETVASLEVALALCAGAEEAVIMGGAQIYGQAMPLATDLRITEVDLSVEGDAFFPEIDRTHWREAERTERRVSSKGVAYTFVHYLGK

As to `CCOC(=O)C1CNc2c(OC)cc(Cc3cnc(N)nc3N)c(OC)c2C1` (centres undefined), the IC50 was determined as 142 µM on Dihydrofolate reductase [1] and 1.9 µM at Dihydrofolate reductase [2].
As usually defined, the MIC is the least concentration at which growth counts as inhibited. A lower MIC goes with greater potency. In the case of `COc1cc(Cc2cnc(N)nc2N)cc2c1N(CCOC(C)=O)CCC2C` (centres undefined), the MIC worked out at 3 µg/mL (≈ 7.78 µM) in [3]; 10 µg/mL (≈ 25.9 µM) against Citrobacter freundii; 30 µg/mL (≈ 77.8 µM) against Escherichia coli; 30 µg/mL (≈ 77.8 µM) in the assay on Klebsiella aerogenes; 3 µg/mL (≈ 7.78 µM) in [4]; 30 µg/mL (≈ 77.8 µM) in the assay with Proteus mirabilis. In addition, the MIC in the assay on Proteus vulgaris is 10 µg/mL (≈ 25.9 µM); in assay [5], 30 µg/mL (≈ 77.8 µM); against Shigella flexneri, 30 µg/mL (≈ 77.8 µM); against Serratia marcescens, more than 10 µg/mL; with Salmonella typhimurium, 30 µg/mL (≈ 77.8 µM); against Streptococcus pyogenes, 10 µg/mL (≈ 25.9 µM). Moreover, the MIC with Staphylococcus aureus was determined as 3 µg/mL (≈ 7.78 µM); against Enterococcus faecalis it was 1 µg/mL (≈ 2.59 µM); with Streptococcus agalactiae, 1 µg/mL (≈ 2.59 µM); against Vibrio cholerae it was 10 µg/mL (≈ 25.9 µM); in the assay with Pasteurella multocida it was 10 µg/mL (≈ 25.9 µM); in the assay with Klebsiella pneumoniae, 10 µg/mL (≈ 25.9 µM). The IC50 is 190 µM at Dihydrofolate reductase [1] and 0.63 µM on Dihydrofolate reductase [2].
For `CCN1CCC(C)c2cc(Cc3cnc(N)nc3N)ccc21` (centres undefined), the MIC was 100 µg/mL (≈ 336 µM) in [3]; 100 µg/mL (≈ 336 µM) against Citrobacter freundii; 100 µg/mL (≈ 336 µM) in the assay on Escherichia coli; 100 µg/mL (≈ 336 µM) with Klebsiella aerogenes; 10 µg/mL (≈ 33.6 µM) in assay [4]; 30 µg/mL (≈ 101 µM) against Proteus mirabilis. Besides, the MIC is 100 µg/mL (≈ 336 µM) with Proteus vulgaris; 100 µg/mL (≈ 336 µM) in assay [5]; 100 µg/mL (≈ 336 µM) in the assay with Shigella flexneri; more than 30 µg/mL in the assay on Serratia marcescens; 100 µg/mL (≈ 336 µM) in the assay on Salmonella typhimurium; 3 µg/mL (≈ 10.1 µM) against Staphylococcus aureus. Moreover, the MIC with Enterococcus faecalis worked out at 3 µg/mL (≈ 10.1 µM); in the assay with Streptococcus agalactiae it was 3 µg/mL (≈ 10.1 µM); against Vibrio cholerae, 10 µg/mL (≈ 33.6 µM); with Pasteurella multocida, 30 µg/mL (≈ 101 µM); with Klebsiella pneumoniae, 100 µg/mL (≈ 336 µM). The IC50 at Dihydrofolate reductase [1] was found to be 38 µM; at Dihydrofolate reductase [2], 0.69 µM.
Consider `COc1cc(Cc2cnc(N)nc2N)cc2c(C)cc(C)nc12`, for which the MIC was found to be 3 µg/mL (≈ 9.7 µM) in assay [3]; 3 µg/mL (≈ 9.7 µM) against Citrobacter freundii; 3 µg/mL (≈ 9.7 µM) against Escherichia coli; 3 µg/mL (≈ 9.7 µM) against Klebsiella aerogenes; 1 µg/mL (≈ 3.23 µM) in [4]; 0.3 µg/mL (≈ 0.97 µM) in the assay on Proteus mirabilis. In addition, the MIC against Proteus vulgaris turned out to be 3 µg/mL (≈ 9.7 µM); in [5], 1 µg/mL (≈ 3.23 µM); in the assay on Shigella flexneri, 3 µg/mL (≈ 9.7 µM); in the assay on Serratia marcescens, 1 µg/mL (≈ 3.23 µM); in the assay on Salmonella typhimurium, 3 µg/mL (≈ 9.7 µM); in the assay on Streptococcus pyogenes it was 0.1 µg/mL (≈ 0.323 µM). In addition, the MIC against Staphylococcus aureus came out at 0.3 µg/mL (≈ 0.97 µM); with Enterococcus faecalis it was 1 µg/mL (≈ 3.23 µM); in the assay on Streptococcus agalactiae, 1 µg/mL (≈ 3.23 µM); against Vibrio cholerae it was 0.3 µg/mL (≈ 0.97 µM); with Pasteurella multocida it was 1 µg/mL (≈ 3.23 µM); against Klebsiella pneumoniae, 1 µg/mL (≈ 3.23 µM). The IC50 on Dihydrofolate reductase [1] was found to be 43 µM.
For the compound `CCN1CC(CO)Cc2cc(Cc3cnc(N)nc3N)cc(OC)c21` (centres undefined), the MIC in [3] was 30 µg/mL (≈ 87.4 µM); against Citrobacter freundii, 100 µg/mL (≈ 291 µM); in the assay on Escherichia coli, 100 µg/mL (≈ 291 µM); in the assay with Klebsiella aerogenes, 10 µg/mL (≈ 29.1 µM); in assay [4], 100 µg/mL (≈ 291 µM); in the assay on Proteus mirabilis, more than 30 µg/mL. The minimum inhibitory concentration (MIC) against Proteus vulgaris was more than 100 µg/mL; in assay [5], 100 µg/mL (≈ 291 µM); against Shigella flexneri it was 100 µg/mL (≈ 291 µM); in the assay on Serratia marcescens, more than 10 µg/mL; against Salmonella typhimurium, 30 µg/mL (≈ 87.4 µM); in the assay with Streptococcus pyogenes, 10 µg/mL (≈ 29.1 µM). In addition, the MIC in the assay on Staphylococcus aureus was 10 µg/mL (≈ 29.1 µM); against Enterococcus faecalis, 3 µg/mL (≈ 8.74 µM); in the assay with Streptococcus agalactiae, 30 µg/mL (≈ 87.4 µM); with Vibrio cholerae it was 100 µg/mL (≈ 291 µM); with Pasteurella multocida, 100 µg/mL (≈ 291 µM); in the assay with Klebsiella pneumoniae it was 30 µg/mL (≈ 87.4 µM). For the same compound, the IC50 worked out at 440 µM on Dihydrofolate reductase [1] and 2.6 µM at Dihydrofolate reductase [2].
On to `COCCOc1cc(Cc2cnc(N)nc2N)cc2cccnc12`, for which the MIC in assay [3] was 30 µg/mL (≈ 92.2 µM); with Citrobacter freundii, 300 µg/mL (≈ 922 µM); in the assay with Escherichia coli it was 100 µg/mL (≈ 307 µM); in the assay on Klebsiella aerogenes, 100 µg/mL (≈ 307 µM); in [4] it was 3 µg/mL (≈ 9.22 µM); in the assay on Proteus mirabilis, more than 30 µg/mL. For the same compound, the MIC is more than 100 µg/mL against Proteus vulgaris; 100 µg/mL (≈ 307 µM) in assay [5]; 100 µg/mL (≈ 307 µM) against Shigella flexneri; more than 10 µg/mL with Serratia marcescens; 100 µg/mL (≈ 307 µM) against Salmonella typhimurium; 3 µg/mL (≈ 9.22 µM) in the assay on Streptococcus pyogenes. Further, the MIC in the assay with Staphylococcus aureus worked out at 10 µg/mL (≈ 30.7 µM); with Enterococcus faecalis, 3 µg/mL (≈ 9.22 µM); against Streptococcus agalactiae it was 10 µg/mL (≈ 30.7 µM); against Vibrio cholerae, 30 µg/mL (≈ 92.2 µM); against Pasteurella multocida, 30 µg/mL (≈ 92.2 µM); in the assay on Klebsiella pneumoniae, 100 µg/mL (≈ 307 µM). Besides, the IC50 on Dihydrofolate reductase [1] turned out to be 9.9 µM.
